According to patent US20130040317A1, “CELL LINES COMPRISING ENDOGENOUS TASTE RECEPTORS AND THEIR USES” (THE UNIVERSITY OF NORTH CAROLINA AT CHAPEL HILL, priority 2011, published 2013):
Read-outs that look alike come from different tables or passages of the source.

How the values were obtained:
Format in all cases: cell-based, human
MB9812 cells = experiment: FLIPR calcium flux assay, tastant response in MB9812 cells
Protocol: Calcium flux assays were performed as previously described in Strachan et al., “Ribosomal S6 kinase 2 directly phosphorylates the 5-hydroxytryptamine 2A (5-HT2A) serotonin receptor, thereby modulating 5-HT2A signaling,” J Biol Chem 284:5557-5573 (2009). MB9812, NCI-H520 or NCI-H522 cells were trypsinized, counted, and seeded onto clear-bottomed 96 well plates (Greiner Bio-One; Monroe, N.C.) pre-coated with poly-D-lysine, at a density of 7.5×10^5 cells per well. After a 24 hour incubation, media was removed and replaced with a […] assay buffer (20 mM HEPES, 1× HBSS, 2.5 mM probenecid, and Ca^2+ assay dye, pH 7.4) (FLIPR® Calcium Assay Kit; Molecular Device Corp, Sunnyvale, Calif.). After a 1-hour incubation at 37° C., during which the cells were allowed to take up the dye, fluorescence responses of cells were measured with a FLIPRTETRA (Molecular Device Corp; Sunnyvale, Calif.) device upon the addition of variable concentrations of tastant, or vehicle, in the presence of assay buffer (20 mM HEPES, pH 7.4, 1× Hanks Balanced Salt [Invitrogen; Carlsbad, Calif.] and 2.5 mM probenecid). After data acquisition, a subsequent addition of […] was injected into each well, and fluorescence was measured again. Net peak responses to tastants were normalized to net peak responses to thapsigargin. Responses were compared with that of wild-type control MB9812, NCI-H520 or NCI-H522 cells. Statistical and graphical analyses were performed using Prism v. 5.0b (GraphPad Software; La Jolla, Calif.).
MB9812, NCI-H520 and NCI-H522 cells were selected for taste stimulation. The cells were loaded with fluorescent calcium-sensitive dye, treated with a variety of tastants, and monitored for intracellular calcium release with a FLIPR imaging device.

NCI-H520 cells = experiment: FLIPR calcium flux assay, tastant response in NCI-H520 cells
Protocol: (§1) Calcium flux assays were performed as previously described in Strachan et al., “Ribosomal S6 kinase 2 directly phosphorylates the 5-hydroxytryptamine 2A (5-HT2A) serotonin receptor, thereby modulating 5-HT2A signaling,” J Biol Chem 284:5557-5573 (2009). MB9812, NCI-H520 or NCI-H522 cells were trypsinized, counted, and seeded onto clear-bottomed 96 well plates (Greiner Bio-One; Monroe, N.C.) pre-coated with poly-D-lysine, at a density of 7.5×10^5 cells per well. After a 24 hour incubation, media was removed and replaced with a […] assay buffer (20 mM HEPES, 1× HBSS, 2.5 mM probenecid, and Ca^2+ assay dye, pH 7.4) (FLIPR® Calcium Assay Kit; Molecular Device Corp, Sunnyvale, Calif.). After a 1-hour incubation at 37° C., during which the cells were allowed to take up the dye, fluorescence responses of cells were measured with a FLIPRTETRA (Molecular Device Corp; Sunnyvale, Calif.) device upon the addition of variable concentrations of tastant, or vehicle, in the presence of assay buffer (20 mM HEPES, pH 7.4, 1× Hanks Balanced Salt [Invitrogen; Carlsbad, Calif.] and 2.5 mM probenecid). After data acquisition, a subsequent addition of […] was injected into each well, and fluorescence was measured again. Net peak responses to tastants were normalized to net peak responses to thapsigargin. […]

NCI-H522 cells = experiment: FLIPR calcium flux assay, tastant response in NCI-H522 cells
Protocol: as §1

SMILES	cell response to tastant (increase in intracellular calcium, FLIPR calcium flux) (MB9812 cells)	cell response to tastant (increase in intracellular calcium, FLIPR calcium flux) (NCI-H520 cells)	cell response to tastant (increase in intracellular calcium, FLIPR calcium flux) (MB9812 cells; listed as denatonium B)	cell response to tastant (increase in intracellular calcium, FLIPR calcium flux) (NCI-H522 cells)
OC[C@H]1O[C@@](CO)(O[C@H]2O[C@H](CO)[C@@H](O)[C@H](O)[C@H]2O)[C@@H](O)[C@@H]1O [sucrose]	response	–	–	–
C=C1C[C@@]23CC[C@H]4[C@@](C)(CCC[C@@]4(C)C(=O)O[C@@H]4O[C@H](CO)[C@@H](O)[C@H](O)[C@H]4O)[C@@H]2CC[C@]1(O[C@@H]1O[C@H](CO)[C@@H](O)[C@H](O[C@@H]2O[C@H](CO)[C@@H](O)[C@H](O)[C@H]2O)[C@H]1O[C@@H]1O[C@H](CO)[C@@H](O)[C@H](O)[C@H]1O)C3 [Rebaudioside A]	–	respond	–	–
CC[N+](CC)(CC(=O)Nc1c(C)cccc1C)Cc1ccccc1 [denatonium-B, denatonium benzoate]	respond	respond	response	respond
O=C(CO)[C@@H](O)[C@H](O)[C@H](O)CO [fructose]	response	–	–	–
